# From paper PMC7565984, “A Phosphorylation-Induced Switch in the Nuclear Localization Sequence of the Intrinsically Disordered NUPR1 Hampers Binding to Importin” (Biomolecules, 2020)
# Where a SMILES comes first, the peptide text is derived from it.
# T1: ΔImpα3 (importin α3 without the IBB domain, residues 64-521) (Homo sapiens, UniProt O00629)
# T1 construct: The His-tagged ΔImpα3 (residues 64-521) was obtained from BL21 (DE3) cells as described; His-tag; made in house; host or cells: Escherichia coli BL21 (DE3)
# T1 sequence (O00629 64-521): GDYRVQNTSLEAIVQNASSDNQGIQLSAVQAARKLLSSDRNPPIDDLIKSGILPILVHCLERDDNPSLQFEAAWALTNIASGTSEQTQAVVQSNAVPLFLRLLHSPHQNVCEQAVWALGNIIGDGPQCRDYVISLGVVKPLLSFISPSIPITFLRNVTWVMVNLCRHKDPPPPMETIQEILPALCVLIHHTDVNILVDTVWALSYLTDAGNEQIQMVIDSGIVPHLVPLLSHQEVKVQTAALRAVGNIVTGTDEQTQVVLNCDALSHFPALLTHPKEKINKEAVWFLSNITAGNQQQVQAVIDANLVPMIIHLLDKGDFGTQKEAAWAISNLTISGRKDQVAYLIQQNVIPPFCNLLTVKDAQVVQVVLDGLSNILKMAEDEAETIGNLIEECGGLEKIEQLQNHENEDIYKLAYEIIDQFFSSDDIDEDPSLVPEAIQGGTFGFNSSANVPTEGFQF
# T2: human importin α3 (Impα3) (Homo sapiens, UniProt O00629)
# T2 construct: although the IBB region maintains its independence within the whole Impα3 in terms of conformation; His-tag (N); made in house; host or cells: Escherichia coli BL21 (DE3)
# T2 sequence (O00629 1-521): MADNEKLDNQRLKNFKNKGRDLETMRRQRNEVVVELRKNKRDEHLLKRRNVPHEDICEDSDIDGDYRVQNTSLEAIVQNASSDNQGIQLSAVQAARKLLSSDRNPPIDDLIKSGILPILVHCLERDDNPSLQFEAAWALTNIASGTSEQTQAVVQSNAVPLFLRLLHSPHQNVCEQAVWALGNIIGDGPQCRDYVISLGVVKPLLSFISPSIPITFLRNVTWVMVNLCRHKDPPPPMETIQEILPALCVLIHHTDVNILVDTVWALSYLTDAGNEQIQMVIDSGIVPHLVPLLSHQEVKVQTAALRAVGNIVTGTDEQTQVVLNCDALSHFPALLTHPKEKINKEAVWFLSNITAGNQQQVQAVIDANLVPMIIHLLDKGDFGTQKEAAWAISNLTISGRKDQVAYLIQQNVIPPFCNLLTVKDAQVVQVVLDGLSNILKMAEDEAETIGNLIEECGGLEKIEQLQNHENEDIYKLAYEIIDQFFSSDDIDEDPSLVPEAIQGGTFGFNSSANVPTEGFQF
# T3: truncated importin α3 without the IBB domain (residues 64-521) (human, UniProt O00629 64-521)
# T3 construct: human importin α3 (KPNA4) without the IBB domain, residues 64-521; also called ΔImpα3; ΔImportin
# T3 sequence (looked up): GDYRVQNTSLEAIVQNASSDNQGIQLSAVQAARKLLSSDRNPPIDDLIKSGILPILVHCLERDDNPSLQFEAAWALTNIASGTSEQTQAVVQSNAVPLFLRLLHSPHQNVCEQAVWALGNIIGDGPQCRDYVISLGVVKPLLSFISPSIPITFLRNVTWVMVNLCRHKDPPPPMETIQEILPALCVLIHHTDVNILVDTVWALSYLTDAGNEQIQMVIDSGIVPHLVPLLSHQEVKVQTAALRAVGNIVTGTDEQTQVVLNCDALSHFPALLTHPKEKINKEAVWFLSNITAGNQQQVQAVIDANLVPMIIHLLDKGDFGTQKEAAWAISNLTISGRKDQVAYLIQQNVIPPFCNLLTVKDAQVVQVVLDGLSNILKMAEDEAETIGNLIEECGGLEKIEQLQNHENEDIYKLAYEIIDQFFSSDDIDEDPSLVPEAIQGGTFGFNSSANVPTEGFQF
# Tests used:
# [1] = target: T1, ΔImpα3 (importin α3 without the IBB domain, residues 64-521); assay: ITC binding of NLS-NUPR1 peptides / NUPR1 to ΔImpα3
# Procedure: (§1) The experimental set-up and data processing of ITC experiments has been described previously. Calorimetric titrations, performed in an Auto-iTC200 calorimeter (MicroCal, Malvern-Panalytical, Malvern, UK) consisted of series of 19 2-μL injections, with 150 s time spacing and a 750-rpm stirring speed. Impα3 or ΔImpα3 (at 10–20 μM) was loaded into the calorimetric cell and NLS-NUPR1 peptides in the syringe (150–300 μM); all solutions were prepared in buffer Tris 50 mM, pH 8. […] The binding affinity (association constant) and the binding enthalpy were estimated through a least-squares nonlinear regression data analysis, from which the Gibbs energy and the entropic contribution to the binding were calculated using well-known thermodynamic relationships. Since the binding stoichiometry is constrained by the model, the parameter n provides a fraction of the active or binding competent protein. Experiments for each peptide and importin species were performed, at least, in duplicates.
# [2] = target: T2, human importin α3 (Impα3); assay: ITC binding of NLS-NUPR1 peptides / NUPR1 to Impα3
# Procedure: as §1
# [3] = Translational diffusion by NMR DOSY (hydrodynamic properties); format: physicochemical
# Procedure: Concentrations of peptides in all DOSY experiments were 120 μM, and 128 scans, where the gradient strength was varied, were acquired for each curve. Translational self-diffusion measurements were performed with the pulsed gradient spin-echo sequence in the presence of 100% D2O. Experimental details have been described elsewhere. Briefly, the gradient strength was varied in sixteen linear steps between 2% and 95% of the total power of the gradient coil. The gradient strength was previously calibrated by using the value of the translational diffusion coefficient, D, for the residual proton water line in a sample containing 100% D2O in a 5-mm tube [34]. In our experiments for each peptide, the duration of the gradient was 2.25 ms, the time between the two pulse gradients in the pulse sequence was set to 200 ms, and the recovery delay between the bipolar gradients was set to 100 μs. The methyl groups with signals between 1.0 and 0.80 ppm were used for integration. Fitting of the exponential curves obtained from experimental data was carried out with KaleidaGraph (Synergy Software, Version 3.5), as described. A final concentration of 1% of dioxane, which was assumed to have a hydrodynamic radius Rh = 2.12 Å [34], was added to the solutions of each of the peptides to have a comparison for estimating their sizes.
# [4] = target: T3, truncated importin α3 without the IBB …; assay: ITC; intact NUPR1 with ΔImpα3; conditions of this titration are not told (Figure S4); conditions: both partners purified
# [5] = target: T2, human importin α3 (Impα3); conditions: ITC, shown in Figure S4 for comparison; previously measured; read-out: Kd (dissociation constant) of intact NUPR1 for Impα3; cited from earlier work
# Description: Furthermore, we tried to dissect the affinity of the NLS region of NUPR1 for Impα3 by using a “divide and conquer” approach with the peptides comprising the region. The interaction between full-length NUPR1 and its mutants with Impα3 and ΔImpα3 was the focus of this study, but instead, we emplo ... || In this work, we tried first to find out whether the theoretically predicted NLS region of NUPR1 was capable of binding in isolation to Impα3. Second, we tried to elucidate, for the first time, the molecular bases behind the binding of an NLS region of an IDP to an importin. […] These findings allow us to draw several conclusions. […] However, t ...
# [6] = ITC, 298 K, Tris 50 mM pH 8, absolute error 0.5 kcal/mol
# [7] = ITC, 298 K, Tris 50 mM pH 8, calculated from Kd and ΔH, absolute error 0.7 kcal/mol
"Kd ([1]; ITC, 298 K, Tris 50 mM pH 8, importin 10–20 μM in cell, peptide 150–300 μM in syringe, 1:1 model, at least duplicates, relative error 30%, read-out: Kd (dissociation constant), ΔImpα3)",Kd [4],Molecule,"ΔH (binding enthalpy), ΔImpα3 [1, 6]","−TΔS (entropic contribution), ΔImpα3 [1, 7]","Experimental binding free energy, ΔImpα3 ([1]; from ITC, Table 2, 298 K)","ΔH (binding enthalpy), Impα3 [2, 6]","−TΔS (entropic contribution), Impα3 [2, 7]","Experimental binding free energy, Impα3 ([2]; from ITC, Table 2, 298 K)","D, translational diffusion coefficient ([3]; 283 K, pH 7.2, 50-mM deuterated Tris, 100% D2O, peptide 120 μM)","Rh, hydrodynamic radius from D ([3]; from the translational diffusion coefficient of dioxane (Rh = 2.12 Å) added to each sample)",Kd [5]
–,–,CC(=O)N[C@@H](Cc1ccc(O)cc1)C(=O)N[C@H](C(=O)N[C@@H](CC(N)=O)C(=O)N[C@@H](CCCNC(=N)N)C(=O)N1CCC[C@H]1C(=O)N[C@@H](CO)C(=O)N1CCC[C@H]1C(=O)NCC(=O)NCC(=O)N[C@@H](Cc1c[nH]cn1)C(=O)N[C@@H](CCC(=O)O)C(=O)N[C@@H](CCCNC(=N)N)C(=O)N[C@@H](CCCCN)C(=O)N[C@@H](CC(C)C)C(=O)N[C@H](C(=O)N[C@H](C(=O)N[C@@H](CCCCN)C(=O)N[C@@H](CC(C)C)C(=O)N[C@@H](CCC(N)=O)C(=O)N[C@@H](CC(N)=O)C(=O)N[C@@H](CO)C(=O)N[C@@H](CCC(=O)O)C(N)=O)[C@@H](C)O)C(C)C)[C@@H](C)O [wt] (Ac-YTNRPSPGGHERKLVTKLQNSE-NH2),-3.7 kcal/mol,-4.5 kcal/mol,-8.22 kcal/mol,0.8 kcal/mol,-8.7 kcal/mol,-7.87 kcal/mol,1.85 ± 0.04 cm^2 s^−1 × 10^6,11 ± 1 Å,–
440 nM,400 nM,"intact NUPR1 (full-length, 82 residues) (natural protein, UniProt O60356 1-82, looked up, NUPR1, UniProtKB O60356, 82 residues long (8 kDa), intact protein; also called full-length NUPR1; nuclear protein 1) MATFPPATSAPQQPPGPEDEDSSLDESDLYSLAHSYLGGGGRKGRTKREAAANTNRPSPGGHERKLVTKLQNSERKKRGARR",–,–,–,–,–,–,–,–,1400 nM
